Experimental data as given in US7692011B2, “8-hydroxy and 8-mercapto quinazolinones” (Prana Biotechnology Limited, priority 2002, dated 2010).

Experiment: Assay 13 Blood brain barrier penetration (rat brain perfusion)
Assay type: in vivo
Conditions: 50 μM infusion, 1.5 minutes
Protocol: Assay 13. Blood Brain Barrier Penetration
The test compounds were dissolved in DMSO and phosphate buffered saline (PBS) was added to obtain solutions at a concentration of 50 μM in PBS containing 1.25-2.5% DMSO. A trace amount of ^14C-sucrose was added to each stock infusion solution (approx 0.01 μCi/mL) to act as Blood-Brain Barrier (BBB)-impermeable marker in order to assess the integrity of the BBB during each perfusion and to estimate the volume of the residual vascular space (RVS) in samples of brain tissue (ie: the volume of fluid remaining inside the lumen of blood vessels at the end of each perfusion). […]
After 1.5 minutes, the infusion pump automatically stopped, the cannula was withdrawn from the carotid artery and a sample of the infusion solution (1-1.5 mL) was then collected from the tip of the infusion cannula. […] The brain tissue samples from each animal were frozen at −30° C., homogenized and weighed aliquots analysed by LC-MS to give total brain concentration. […]
Small aliquots from each brain tissue sample and the corresponding infusion solution were analysed by liquid scintillation counting to determine the level of ^14C-sucrose. The residual vascular space (RVS) in each brain tissue sample was calculated by dividing the measured concentration of sucrose in brain tissue (dpm/mg) by its concentration in the corresponding infusion solution (dpm/μL). […]

O=c1c2c(Cl)cc(Cl)c(O)c2ncn1C1CC1 [PBT-1061, 5,7-Dichloro-3-cyclopropyl-8-hydroxy-3H-quinazolin-4-one]
Assay 13 Rat brain perfusion (brain uptake ratio): >50%
